The values below come from US11753635B2, “Methods and systems and related compositions for mixtures separation with a solid matrix” (CALIFORNIA INSTITUTE OF TECHNOLOGY, priority 2017, dated 2023).

The conditions of data set [1]: cited from earlier work.
Data set [2] deals with LAMP reaction on lambda phage DNA. Put plainly: LAMP with contaminants (Example 4). Format: biochemical. The note with it: 10% additive (1 uL in 10 uL reaction). The protocol: LAMP reactions were carried out using standard conditions provided by NEB with slight modifications. LAMP solutions were provided by NEB unless otherwise noted. The final solution contained 1× Isothermal Amplification Buffer I, 1.4 mM dNTPs, 7 mM MgSO4 (5 mM+2 mM in buffer), WarmStart Bst 2.0 (320 U/mL), 1 mg/mL BSA (Ambion) Lambda phage LAMP primers (standard desalted, Integrated DNA Technologies) at concentrations 0.2 uM F3/B3, 1.6 uM FIP/BIP, 0.4 uM LoopF/B as previously developed by Goto in 2009 were used. Reactions were made to a total of 10 uL comprised of 5 uL concentrated reaction mix and 5 uL of purified nucleic acids from the various extraction conditions (NF—H2O for negative control). For positive controls, 5 uL purified lambda phage DNA ([…]) was added to each reaction and for 5 uL template from nucleic acid extractions or each sample was tested in triplicate (n=3) and solutions were made to either 9 uL or 10 uL. The LAMP reaction was carried out by heating to 68° C. and all of the wells were tracked in real-time (image every 35 s) on the BioRad CFX-96 system. Samples were deemed negative if they […] over 30 min. Cycle times were determined automatically using the BioRad analysis software and converted to time-to-positive in minutes. […]

With `CCCCCO` [1 pentanol], the “Water solubility at 25° C.” value in data set [1] was 2.2 g/100 mL.
For `CCCCCCCCCCCCCCCCCCCCO` [Arachidyl Alcohol (20 ol), Arachidyl Alcohol], in data set [1], the “Water solubility at 25° C.” value is on record as 0.151 ug/100 mL.
Turning to `CCCCCCCCCCCCCO` [1 tridecanol], the “Water solubility at 25° C. (in words)” value in data set [1] (explained as a solubility of 1 g per 10 L of solvent) is “practically insoluble (a”.
Consider `CCCCC(O)CCCC` [5-nonanol], for which the “Water solubility at 25° C.” value in data set [1] was 0.046 g/100 mL.
Consider `CCCCCCCCO` [1-octanol], for which the “Water solubility at 25° C.” value in data set [1] is 0.03 g/100 mL. Besides, in data set [2] (versus 10 uL positive control), the “Delay in LAMP (time-to-positive)” value amounted to 1.4 min.
`CCO` [ethanol, reference compound]: the “Inhibition of the LAMP reaction” value in data set [2] (no amplification for at least 30 min) is reported as “completely inhibits the LAMP reaction”.
